The results in this text go back to ChEMBL document CHEMBL4138296, “Nonacidic Chemotype Possessing N-Acylated Piperidine Moiety as Potent Farnesoid X Receptor (FXR) Antagonists” (ACS Med Chem Lett, 2018).

Data set [1] addresses T1, Oxysterols receptor LXR-alpha (Homo sapiens) (UniProt Q13133).
T1 sequence (whole entry): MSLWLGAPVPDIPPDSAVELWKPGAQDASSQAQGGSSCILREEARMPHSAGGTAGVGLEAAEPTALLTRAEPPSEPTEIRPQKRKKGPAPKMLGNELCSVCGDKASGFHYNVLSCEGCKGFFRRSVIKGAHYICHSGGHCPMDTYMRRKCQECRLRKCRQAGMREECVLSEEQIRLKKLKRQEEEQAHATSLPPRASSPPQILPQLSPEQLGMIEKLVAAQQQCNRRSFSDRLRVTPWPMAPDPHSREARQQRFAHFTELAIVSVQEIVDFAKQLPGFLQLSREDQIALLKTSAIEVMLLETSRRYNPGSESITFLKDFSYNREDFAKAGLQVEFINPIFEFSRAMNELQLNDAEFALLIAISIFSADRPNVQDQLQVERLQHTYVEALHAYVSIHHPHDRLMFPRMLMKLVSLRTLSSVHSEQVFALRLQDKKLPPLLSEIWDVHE
The data set is described as follows: Agonist activity at LXRalpha (unknown origin) at 1 uM by luciferase reporter gene assay. In general terms: In a reporter assay the amount or activity of a reporter protein is the signal.

Data set [2] concerns the target T2, Oxysterols receptor LXR-beta (Homo sapiens) (UniProt P55055).
T2 sequence (whole entry): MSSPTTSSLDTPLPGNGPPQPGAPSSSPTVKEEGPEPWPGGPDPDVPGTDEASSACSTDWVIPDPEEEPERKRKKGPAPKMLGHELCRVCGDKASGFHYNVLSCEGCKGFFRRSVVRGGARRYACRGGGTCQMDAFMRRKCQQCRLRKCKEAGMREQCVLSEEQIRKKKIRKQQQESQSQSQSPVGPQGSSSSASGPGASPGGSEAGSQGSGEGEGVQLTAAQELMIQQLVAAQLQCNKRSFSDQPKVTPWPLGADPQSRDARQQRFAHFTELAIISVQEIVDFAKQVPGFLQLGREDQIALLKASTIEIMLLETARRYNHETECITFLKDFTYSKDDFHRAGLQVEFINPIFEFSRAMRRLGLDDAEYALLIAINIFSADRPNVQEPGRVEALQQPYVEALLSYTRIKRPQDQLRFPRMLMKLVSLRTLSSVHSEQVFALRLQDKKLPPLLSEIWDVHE
The data set is described as follows: Agonist activity at LXRbeta (unknown origin) at 1 uM by luciferase reporter gene assay.

Data set [3] addresses T3, Bile acid receptor (Homo sapiens, UniProt Q96RI1).
T3 sequence (Q96RI1 whole entry): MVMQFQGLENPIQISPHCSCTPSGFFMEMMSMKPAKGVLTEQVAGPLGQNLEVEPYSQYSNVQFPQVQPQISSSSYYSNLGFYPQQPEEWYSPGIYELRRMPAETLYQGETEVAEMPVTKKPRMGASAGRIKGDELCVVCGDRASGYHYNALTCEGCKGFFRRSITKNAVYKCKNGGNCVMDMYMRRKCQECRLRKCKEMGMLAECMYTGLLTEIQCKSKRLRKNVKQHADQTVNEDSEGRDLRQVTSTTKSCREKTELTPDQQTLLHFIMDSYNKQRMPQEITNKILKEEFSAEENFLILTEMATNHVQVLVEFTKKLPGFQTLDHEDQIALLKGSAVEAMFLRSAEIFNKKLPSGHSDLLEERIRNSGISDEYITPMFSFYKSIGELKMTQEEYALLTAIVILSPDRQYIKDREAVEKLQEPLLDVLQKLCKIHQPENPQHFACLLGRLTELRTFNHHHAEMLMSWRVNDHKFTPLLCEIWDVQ
Nature of the data set: Antagonist activity at FXR in human HepG2 cells assessed as inhibition of CYP3A4 mRNA expression level at 0.02 to 2 uM after 48 hrs by RT-PCR analysis. Format: ADME, cell-based. To be noted: hepg2, 48 h.

Data set [4] addresses T4, Vitamin D3 receptor (Homo sapiens) (UniProt P11473).
T4 sequence (whole entry): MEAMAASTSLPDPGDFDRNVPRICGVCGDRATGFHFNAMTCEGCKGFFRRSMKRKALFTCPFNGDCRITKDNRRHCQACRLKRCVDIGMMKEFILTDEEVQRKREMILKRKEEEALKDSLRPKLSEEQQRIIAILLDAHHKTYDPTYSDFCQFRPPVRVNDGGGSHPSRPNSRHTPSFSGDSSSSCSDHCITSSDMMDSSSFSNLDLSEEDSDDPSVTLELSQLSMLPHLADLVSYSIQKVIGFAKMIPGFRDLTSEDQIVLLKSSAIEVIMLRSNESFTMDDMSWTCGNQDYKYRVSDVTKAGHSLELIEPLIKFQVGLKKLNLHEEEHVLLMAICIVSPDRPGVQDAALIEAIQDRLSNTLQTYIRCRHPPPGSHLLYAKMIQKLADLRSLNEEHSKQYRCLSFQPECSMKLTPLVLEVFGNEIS
The data set is described as follows: Agonist activity at human VDR expressed in HEK293T cells at 1 uM by luciferase reporter gene assay. Format: cell-based.

In data set [5] the target is T5, Peroxisome proliferator-activated receptor delta (Homo sapiens) (UniProt Q03181).
T5 sequence (whole entry): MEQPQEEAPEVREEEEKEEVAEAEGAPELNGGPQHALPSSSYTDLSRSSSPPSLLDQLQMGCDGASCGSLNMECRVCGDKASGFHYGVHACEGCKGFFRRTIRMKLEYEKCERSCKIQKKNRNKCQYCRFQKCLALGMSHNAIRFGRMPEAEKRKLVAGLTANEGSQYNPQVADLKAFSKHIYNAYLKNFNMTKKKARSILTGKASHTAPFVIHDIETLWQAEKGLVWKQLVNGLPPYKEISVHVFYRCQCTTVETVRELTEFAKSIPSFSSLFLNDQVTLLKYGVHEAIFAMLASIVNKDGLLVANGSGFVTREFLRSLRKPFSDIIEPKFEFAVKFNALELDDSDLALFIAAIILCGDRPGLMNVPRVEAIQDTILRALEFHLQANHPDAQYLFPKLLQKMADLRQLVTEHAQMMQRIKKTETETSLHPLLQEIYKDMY
The data set is described as follows: Antagonist activity at PPARdelta (unknown origin) assessed as inhibition of GW501516-induced response at 1 uM by luciferase reporter gene assay.

Data set [6] addresses T5, Peroxisome proliferator-activated receptor delta (Homo sapiens). Nature of the data set: Agonist activity at PPARdelta (unknown origin) at 1 uM by luciferase reporter gene assay.
In data set [7] the target is T3, Bile acid receptor. The data set is described as follows: Antagonist activity at human FXR expressed in Hep3B cells assessed as inhibition of CDCA-induced FXR response element driven luciferase activity after 24 hrs. Format: cell-based.

Each structure is given as a SMILES string. Activity calls are given as the source filed them. No cut-off for these calls is given here. Where only a bound is given, the exact number is not on record here.

Regarding `Cc1ccc2nc([C@H](CC3CCN(C(=O)C(C)C)CC3)N3C(=O)CN(c4ccc(Oc5ccccc5)cc4)C3=O)n(C)c2c1`, the outcome in data set [1], in data set [2], in data set [4] and in data set [6] was inactive. Moreover, the “inhibition (INH)” value in data set [3] is “Not Active”. In addition, the inhibition entry in data set [5] was “inactive”. In addition, the half-maximal inhibitory concentration (IC50) (commonly the concentration that gives 50% inhibition) in data set [7] was less than 1 pM.
